# Test results: patent US7342026B2, “Substituted quinolines for the treatment of protozoa and retrovirus co-infections” (priority 2001, dated 2008)
# Like-named read-outs stand apart in the source and are kept apart here.
# How the values were obtained:
# [1] = tested on: amastigotes of Trypanosoma cruzi (Tulahuen strain); test: Amastigotes of Trypanosoma cruzi in peritoneal macrophages; assay type: cell-based; conditions: read-out: T. cruzi (amastigotes) IC50
# Experimental: c) Tests on Amastigotes of Trypanosoma cruzi
# Peritoneal macrophages from Balb/c mice are collected, washed in Dulbecco PBS and then distributed in 96-well plates in a proportion of 3×10^4 cells per 100 μl and per well, in RPMI-1640 medium supplemented with 10% FCS and antibiotics.
# After 24 hours at 37° C., 10^5 trypomastigotes are added with serial 2-fold dilutions of the various substituted quinolines. The cultures are then incubated at 37° C. for 4 days in a humid atmosphere (5% CO2-95% air). After fixing, and then staining with Giemsa, the antiparasitic activity is assessed by counting the extracellular trypomastigotes and the intracellular amastigotes.
# [2] = tested on: CEM4fx cells; test: Cytotoxicity with respect to host CEM4fx cells (MTT bioconversion assay); assay type: cell-based
# Experimental: (§1) Moreover, the cytotoxicity of the quinolines with respect to the host cells is measured by an MTT [3-(4,5-dimethylthiazol-2-yl)-2,5-diphenyltetrazolium bromide]bioconversion assay. All the assays are carried out in triplicate.
# [3] = tested on: HIV-1 (molecular clone pLN4-3); test: microbe, parasite or virus in culture; assay type: cell-based, human immunodeficiency virus (HIV-1); conditions: read-out: Antiretroviral activity IC50
# From the text: e) Tests on the Replication of HIV-1
# CEM4fx cells are infected de novo with the molecular clone pLN4-3 of HIV-1, and simultaneously treated with the substituted quinolines to be tested, dissolved beforehand in DMSO. The virus multiplies for three days, and then the presence of infectious virions is detected in the culture supernatant (RPMI medium) by reinfecting “P4” cells which have a reporter gene which is expressed when they are infected with the virus. The viral load is quantified after culturing for 72 hours, by two methods: estimation of the viral load by infection of HeLa-βgal CD4^+ cells and determination of the amount of viral protein p24 by an ELISA assay.
# [4] = tested on: amastigotes of Leishmania amazonensis; test: Amastigotes of Leishmania amazonensis in infected macrophages (leishmanicidal activity); assay type: cell-based; conditions: 100% inhibitory concentration, intracellular amastigotes in BALB/c macrophages, 30 hours after addition
# Experimental: The strain of Leishmania amazonensis is maintained by successive passages in “nude” mice (nu/nu). The amastigotes are isolated from the lesions developed on the footpads, and purified according to the method described by Antoine et al. (Parasitology, 1989, 99: 1).
# The leishmanicidal activity of the quinolines is determined 30 hours after addition of the solutions of substituted quinolines. It is based on a more or less large, or even complete, decrease, firstly, in the size of the parasitophorous vacuoles and, secondly, in the number of live intracellular amastigotes.
# [5] = tested on: macrophages; test: Cytotoxicity on macrophages; assay type: cell-based, BALB/c mice
# Experimental: The macrophages, which will be used as host cells for the leishmania, are obtained after multiplication and differentiation of medullary precursors from BALB/c mice. This culture is prepared in the presence of supernatant from a conditioned line of fibroblasts L-929, and source of “Macrophage Colony Stimulating Factor”. After culturing for 5 days on a hydrophobic support, the adherent macrophages are recovered and then distributed in flat-bottomed 96-well plates for cell culture, in a proportion of 4×10^4 macrophages per well. The macrophages are then infected with purified amastigotes (4 parasites per macrophage) and incubated at 34° C. for 24 hours to allow development of parasitophorous vacuoles and multiplication of parasites. Under these conditions, more than 95% of the macrophages are infected.
# The solutions of the substituted quinolines to be tested are prepared in DMSO before being added, at various concentrations, to the infected macrophage cultures.
# The results obtained with the substituted quinolines, assigned Nos. 1, 2, 4, 6 to 11, 13 to 20, 23 to 34, 37 and 38 in Table I, are given in Table II below as regards their activity on the amastigotes of Leishmania amazonensis, of Leishmania donovani and of Leishmania infantum, and also their cytotoxicity with respect to the macrophages.
# [6] = tested on: circulating forms of Trypanosoma brucei (S427 strain); test: microbe, parasite or virus in culture; assay type: cell-based; conditions: read-out: T. brucei IC50
# Experimental: d) Tests on the Circulating Forms of Trypanosoma brucei
# The circulating forms of Trypanosoma brucei are cultured in MEM medium (minimum essential medium; GIBCO-BRL, No. 072-1100) to which Earle's salts have been added and supplemented with 1 mg/ml of glucose, 2.2 mg/ml of NaHCO3, 10 mM of Hepes, 2 mM of sodium pyruvate, 0.2 mM of 2-mercaptoethanol, 0.1 mM of hypoxanthine and 15% of inactivated horse serum.
# The cultures are maintained at 37° C. in 24-well plates in a humid atmosphere (5% CO2-95% air) and the passages are carried out every 2 or 3 days at a density of 10^3 to 10^5 trypomastigotes per ml. The activity of the substituted quinolines is tested in triplicate in 96-well plates in which 10^3 parasites originating from an exponential growth phase are distributed per well, in the presence of the various solutions of substituted quinolines in a final volume of 200 μl. After culturing for 48 hours, the trypanocidal activity is assessed by counting, with a Neubauer cell, the number of live parasites per well.
# [7] = tested on: amastigotes of Leishmania infantum (IPZ229/1/89); test: microbe, parasite or virus in culture; assay type: cell-based; conditions: amastigotes in Balb/c peritoneal macrophages, 48 hours
# From the text: (§2) b) Tests on Amastigotes of Leishmania donovani and Leishmania infantum
# (§3) The Leishmania donovani and Leishmania infantum strains are maintained by successive passages in golden hamsters. The amastigotes are isolated from the spleens of the infected hamsters and brought into contact with the purified macrophages.
# (§4) Twenty-four hours after intraperitoneal injection of Balb/c mice with a 2% starch solution, the peritoneal macrophages of these mice are collected, washed in Dulbecco PBS and then distributed in Lab-tek® culture chambers, in a proportion of 4×10^4 cells per 100 μl per well in RPMI-1640 medium supplemented with 10% of FCS and antibiotics. After 24 hours at 37° C. in a humid atmosphere (5% CO2), the macrophages are brought into contact with purified amastigotes (3 parasites per macrophage) in a final volume of 200 μl for 4 hours. The medium is then removed in order to eliminate the extracellular parasites, and replaced with 100 μl of fresh medium.
# (§5) Twenty-four hours after the beginning of infection, the solutions of substituted quinolines prepared as described in paragraph a) above are added and the leishmanicidal activity is determined after 48 hours by counting the number of parasites still alive in the fixed and Giemsa-stained cells.
# [8] = tested on: amastigotes of Leishmania donovani (MHOM/ET/67/L82); test: microbe, parasite or virus in culture; assay type: cell-based; conditions: amastigotes in Balb/c peritoneal macrophages, 48 hours
# From the text: as §2, §3, §4, §5
# [9] = tested on: Leishmania infantum (MHOM/FR/91/LEM2259V); test: Balb/c mice infected with visceral leishmaniasis (Leishmania infantum); assay type: in vivo; conditions: 10 days, quinolines oral 25 mg/kg/day, Glucantime subcutaneous 100 mg/kg/day
# Experimental: b) Tests Carried on Laboratory Animals Infected with Visceral Leishmaniasis (Leishmania infantum): 1/Laboratory Animals and Parasites
# The Balb/c mice were infected with Leishmania infantum parasites at the promastigote stage (reference: MHOM/FR/91/LEM2259V), a strain isolated from a patient carrying AIDS. This strain is maintained in Schneider's drosophila culture medium (Gibco, USA) supplemented with 20% of fetal calf serum. The infectious promastigotes are cultured for 7 days and then counted. Each mouse is then infected intravenously with 0.2 ml of culture medium containing 10^7 promastigotes.
# Counting of amastigotes forms in the liver and spleen.
# After the treatments have been stopped and the animals sacrificed, the viscera, liver and spleen are weighed and collected in a Petri dish. Each organ is mounted several times on a degreased glass slide which, fixed and stained by the May-Grünwald-Giemsa technique, makes it possible to determine the number of amastigote forms per 500 nucleated cells.
# The results are expressed in Table VI.
# [10] = Cytotoxicity with respect to host CEM4fx cells (MTT bioconversion assay); assay type: cell-based; conditions: human, CEM4fx cells (host cells)
# Experimental: as §1
# [11] = Balb/c peritoneal macrophages, 4 days
# [12] = HIV-1 replication in CEM4fx cells, 72 hours
SMILES,"IC50 [1, 11] [µM]",IC50 [2] [µM],"IC50 [3, 12] [nM]",L. amazonensis IC100 [4] [µg/mL],Cytotoxicity on macrophages ([5]; macrophages from BALB/c mice) [µg/mL],"IC50 ([6]; circulating forms, culturing for 48 hours) [µM]",L. infantum (IPZ229/1/89) IC50 [7] [µg/mL],L. donovani IC50 [8] [µg/mL],L. amazonensis IC100 ([4]; listed as 26) [µg/mL],Number of parasites in the liver per gram ([9]; n=8),Number of parasites in the spleen per gram ([9]; n=8),% reduction in the number of parasites in the liver ([9]; versus without treatment) [%],% reduction in the number of parasites in the spleen ([9]; versus without treatment) [%],"IC50 ([1]; Trypanosoma cruzi, TULAHUEN, Peritoneal macrophage, in Mus musculus, 96 h) [µM]",IC50 [10] [nM],"IC50 ([3]; Human immunodeficiency virus 1, 72 h) [nM]","Cytotoxicity on macrophages ([5]; BALB/c, mouse) [µg/mL]","IC50 ([6]; Trypanosoma brucei, 48 h) [µM]"
CCCCCc1ccc2ccccc2n1 [Quinoline 20],19,9,2000,>50,>100,13,,,,,,,,,,,,
C[Si](C)(C)C#Cc1ccc2ccccc2n1 [Quinoline 26],8,3,900,,1.56,,10.9,1.7,12.5,,,,,,,,,
"O=CC=Cc1ccc2ccccc2n1 [Quinoline 9, 3-(2-quinolyl)propenal]",,,,0.781,,,,,,"3.8 × 10^6 a, e per gram",2.2 × 10^6 b per gram,−91.6,−47.6,5,2000,600,1.56,19
